For experiment [1], the system named is Echinochloa caudate. Nature of the experiment: Post-emergence foliage spray, pot culture, fresh weight inhibition (Tables 1-48, 51-98, 101-148; 24 days). The class given is in vivo. How it is done:
(§1) The above weeds were cultivated by a pot culture method. […] Full and uniform weed seeds were selected, soaked in warm water at 25° C. for 6 hours, and germinated in a 28° C. biochemical incubator (darkness). The weed seeds that had just germinatedwere evenly placed on the surface of the soil and then covered with 0.5-1 cm soil according to the sizes of seeds.
(§2) The technical materials were all dissolved in acetone, and diluted with an aqueous solution containing 0.1% emulsifier Tween-80. The dilution is performed as required.
(§3) A ratio of the active ingredient A to the active ingredient B and amounts thereof in each group depends on the characteristics and toxicity of the two agents, as well as the main application purpose of a corresponding formulation. Based on the pre-tests in this study, the dosage of the active ingredient A and B applied alone and in combination were shown in the tables. Water containing the solvent and emulsifier same with the above groups but free of the agents was used as a blank control.
(§4) In the stage of weeds with 3˜4 leaves, the weeds were thinned out to maintain 15 weeds per pot and 45 weeds for each treatment, then continued to be cultured to 5˜6 leaves stage of grassy weeds, 6˜7 leaves stage of broadleaf weeds, and treated.
(§5) The well-cultured weeds were evenly placed on a platform with an area of 0.5 m^2, and a solution of agents was sprayed on the stems and leaves thereof by the 3WP-2000-type walking spray tower at a dosage of 450 kg/ha and at a spray pressure of 0.3 MPa. After all the solution was sprayed, the valve was closed. After 30 seconds, the door of the spray tower was opened, and the nutritional bowl was taken out. Then the valve was opened, and the spray tube was cleaned by spraying 50 ml of water.
(§6) A pot-culture method was employed. For the cultivation of weeds, please refer to the Section 1.1), and “Pesticide guidelines for laboratory bioactivity tests—herbicides”. As to a method for applying agents, please refer to the section 2.3.2), that is, a foliage treatment was employed. After the treatment, the weeds were routinely cultured in a greenhouse.
(§7) A method for investigating absolute number was employed, wherein whole seedlings of survival weeds were cut off with a blade along the soil surface, and the fresh weight of the weeds was weighed with an analytical balance. For dead weeds, the fresh weight thereof was zero.
(§8) Wherein, in the formula, X represented the fresh weight inhibition rate of the active ingredient A in a dosage of P, and Y represented the fresh weight inhibition rate of the active ingredient B in a dosage of Q.

The subject of experiment [2] is Echinochloa oryzoides. The description is as above. The class given is in vivo. The method, then: as §1, §2, §3, §4, §5, §6, §7, §8
Where [3] appears, read: Echinochloa, 576 h, read-out: Control effect (%) of B applied alone in corresponding dose.
Setting [4] is: Echinochloa oryzoides, 576 h, read-out: Control effect (%) of B applied alone in corresponding dose.
[5] abbreviates: Echinochloa oryzoides, 576 h, B 75 g a.i./ha, read-out: Control effect (%) of B applied alone in corresponding dose.
The mark [6] stands for this setting: Echinochloa oryzoides, 576 h, B 150 g a.i./ha, read-out: Control effect (%) of B applied alone in corresponding dose.
Where [7] appears, read: Echinochloa oryzoides, 576 h, B 300 g a.i./ha, read-out: Control effect (%) of B applied alone in corresponding dose.
Setting [8] is: Echinochloa oryzoides, 576 h, B 600 g a.i./ha, read-out: Control effect (%) of B applied alone in corresponding dose.

Like-named read-outs stand apart in the source and are kept apart here.

For the compound `CCCCOC(=O)[C@@H](C)Oc1ccc(Oc2ccc(C(F)(F)F)cn2)cc1` [fluazifop-P-butyl], the “Control effect (%) of B applied alone in corresponding dose” value (“Control effect (%) of B applied alone” for short) in experiment [1] (fluazifop-P-butyl 3.75 g a.i./ha) turned out to be 4.2%; in experiment [1] (fluazifop-P-butyl 7.5 g a.i./ha), 13.9%; in experiment [1] (fluazifop-P-butyl 15 g a.i./ha) it was 38.4%; in experiment [1] (fluazifop-P-butyl 30 g a.i./ha) it was 74.1%; in experiment [2] (B 3.75 g a.i./ha), 5.5%; in experiment [2] (B 7.5 g a.i./ha), 14.2%. The results for the “Control effect (%) of B applied alone” value in experiment [2] (B 15 g a.i./ha) and in experiment [2] (B 30 g a.i./ha) were 32.9% and 71.5%, respectively.
`COC(=O)c1ccccc1S(=O)(=O)NC(=O)Nc1nc(C)cc(C)n1` [sulfometuron-methyl]: in experiment [1] (setting [3]), the pest or weed control at 9.375 g/ha came to 3.8%, the pest or weed control at 18.75 g/ha stood at 13.9%, the pest or weed control at 37.5 g/ha came to 24.6% and the pest or weed control at 75 g/ha is 52.7%. For the same compound, in experiment [2] (setting [4]), the pest or weed control at 9.375 g/ha was 3.2%, the pest or weed control at 18.75 g/ha came out at 12.6%, the pest or weed control at 37.5 g/ha came out at 38% and the pest or weed control at 75 g/ha came to 53.8%.
Take `CCC(=O)Nc1ccc(Cl)c(Cl)c1` [propanil]: the pest or weed control at 75 g/ha was determined as 3.8% in experiment [1] (Echinochloa, 576 h, propanil 75 g a.i./ha, read-out: Control effect (%) of B applied alone in corresponding dose) and 7.6% in experiment [2] (setting [5]). Moreover, the pest or weed control at 150 g/ha was 21.1% in experiment [1] (Echinochloa, 576 h, propanil 150 g a.i./ha, read-out: Control effect (%) of B applied alone in corresponding dose) and 19.9% in experiment [2] (setting [6]). In addition, the pest or weed control at 300 g/ha in experiment [1] (Echinochloa, 576 h, propanil 300 g a.i./ha, read-out: Control effect (%) of B applied alone in corresponding dose) was determined as 36.4%; in experiment [2] (setting [7]) it was 37%. The pest or weed control at 600 g/ha in experiment [1] (Echinochloa, 576 h, propanil 600 g a.i./ha, read-out: Control effect (%) of B applied alone in corresponding dose) was determined as 52.5%; in experiment [2] (setting [8]), 53.9%.
Consider `CC1(C)CON(Cc2ccccc2Cl)C1=O` [clomazone], for which the pest or weed control at 45 g/ha in experiment [1] (Echinochloa, 576 h, Table 89, 45 g a.i./ha, read-out: Control effect (%) of B applied alone in corresponding dose) is 8.6%; in experiment [2] (Echinochloa oryzoides, 576 h, B 45 g a.i./ha, read-out: Control effect (%) of B applied alone in corresponding dose), 8.6%. In addition, the pest or weed control at 90 g/ha was found to be 19% in experiment [1] (Echinochloa, 576 h, Table 89, 90 g a.i./ha, read-out: Control effect (%) of B applied alone in corresponding dose) and 12.9% in experiment [2] (Echinochloa oryzoides, 576 h, B 90 g a.i./ha, read-out: Control effect (%) of B applied alone in corresponding dose). For the same compound, the pest or weed control at 180 g/ha in experiment [1] (Echinochloa, 576 h, Table 89, 180 g a.i./ha, read-out: Control effect (%) of B applied alone in corresponding dose) amounted to 47.7%; in experiment [2] (Echinochloa oryzoides, 576 h, B 180 g a.i./ha, read-out: Control effect (%) of B applied alone in corresponding dose), 50.9%. The pest or weed control at 360 g/ha in experiment [1] (Echinochloa, 576 h, Table 89, 360 g a.i./ha, read-out: Control effect (%) of B applied alone in corresponding dose) came to 70.1%; in experiment [2] (Echinochloa oryzoides, 576 h, B 360 g a.i./ha, read-out: Control effect (%) of B applied alone in corresponding dose), 72.1%.
In the case of `CCC/C(=N\OCC)C1=C(O)CC(CC(C)SCC)CC1=O` (stereo not shown) [sethoxydim], in experiment [1] (setting [3]), the pest or weed control at 15 g/ha turned out to be 5.1%, the pest or weed control at 30 g/ha is 21.5%, the pest or weed control at 60 g/ha came to 42.6% and the pest or weed control at 120 g/ha is 61.6%. Besides, in experiment [2] (setting [4]), the pest or weed control at 15 g/ha came out at 5.5%, the pest or weed control at 30 g/ha worked out at 13.8%, the pest or weed control at 60 g/ha came to 35.4% and the pest or weed control at 120 g/ha was 68.4%.
For `COC(=O)[C@@H](C)Oc1ccc(Oc2cnc3cc(Cl)ccc3n2)cc1` [quizalofop-P-methyl], the “Control effect (%) of B applied alone” value in experiment [1] (quizalofop-P-methyl 3.75 g a.i./ha) came out at 3.4%; in experiment [1] (quizalofop-P-methyl 7.5 g a.i./ha), 12.2%; in experiment [1] (quizalofop-P-methyl 15 g a.i./ha) it was 40.8%; in experiment [1] (quizalofop-P-methyl 30 g a.i./ha) it was 72.1%; in experiment [2] (B 3.75 g a.i./ha), 5.9%; in experiment [2] (B 7.5 g a.i./ha) it was 14.6%. The “Control effect (%) of B applied alone” value stood at 38.6% in experiment [2] (B 15 g a.i./ha) and 63.3% in experiment [2] (B 30 g a.i./ha).
For `COC(=O)[C@@H](C)Oc1ccc(Oc2ncc(C(F)(F)F)cc2Cl)cc1` [haloxyfop-P-methyl], the “Control effect (%) of B applied alone” value is 3.0% in experiment [1] (haloxyfop-P-methyl 3.75 g a.i./ha); 15.6% in experiment [1] (haloxyfop-P-methyl 7.5 g a.i./ha); 40.2% in experiment [1] (haloxyfop-P-methyl 15 g a.i./ha); 73.4% in experiment [1] (haloxyfop-P-methyl 30 g a.i./ha); 7.9% in experiment [2] (B 3.75 g a.i./ha); 19.0% in experiment [2] (B 7.5 g a.i./ha). In addition, the “Control effect (%) of B applied alone” value in experiment [2] (B 15 g a.i./ha) worked out at 30.4%; in experiment [2] (B 30 g a.i./ha), 66.9%.
For `CCNc1nc(Cl)nc(NC(C)C)n1` [atrazine], the pest or weed control at 75 g/ha turned out to be 3.8% in experiment [1] (Echinochloa, 576 h, atrazine 75 g a.i./ha, read-out: Control effect (%) of B applied alone in corresponding dose) and 6.7% in experiment [2] (setting [5]). Besides, the pest or weed control at 150 g/ha is 13.5% in experiment [1] (Echinochloa, 576 h, atrazine 150 g a.i./ha, read-out: Control effect (%) of B applied alone in corresponding dose) and 21.7% in experiment [2] (setting [6]). Besides, the pest or weed control at 300 g/ha in experiment [1] (Echinochloa, 576 h, atrazine 300 g a.i./ha, read-out: Control effect (%) of B applied alone in corresponding dose) was 24.8%; in experiment [2] (setting [7]) it was 26.4%. For the same compound, the pest or weed control at 600 g/ha in experiment [1] (Echinochloa, 576 h, atrazine 600 g a.i./ha, read-out: Control effect (%) of B applied alone in corresponding dose) worked out at 66.5%; in experiment [2] (setting [8]) it was 61.8%.
Regarding `CCSC(C)CC1CC(=O)C(/C(CC)=N/OC/C=C/Cl)=C(O)C1` (stereo not shown) [clethodim], in experiment [1] (setting [3]), the pest or weed control at 7.5 g/ha stood at 3.4%, the pest or weed control at 15 g/ha stood at 27%, the pest or weed control at 30 g/ha came to 43.8% and the pest or weed control at 60 g/ha amounted to 67.4%. In addition, in experiment [2] (setting [4]), the pest or weed control at 7.5 g/ha was found to be 6.7%, the pest or weed control at 15 g/ha was determined as 19%, the pest or weed control at 30 g/ha is 37.8% and the pest or weed control at 60 g/ha was 62.7%.
Consider `CS(=O)(=O)c1ccc(C(=O)C2=C(Sc3ccccc3)C3CCC(C3)C2=O)c(Cl)c1` (stereo not shown) [benzobicylon], for which the “Control effect (%) of B applied alone” value was 2.1% in experiment [1] (Table 86, 37.5 g a.i./ha); 11.7% in experiment [1] (Table 86, 75 g a.i./ha); 43.3% in experiment [1] (Table 86, 150 g a.i./ha); 54.4% in experiment [1] (Table 86, 300 g a.i./ha); 9.3% in experiment [2] (B 37.5 g a.i./ha); 18.0% in experiment [2] (B 75 g a.i./ha). Further, the “Control effect (%) of B applied alone” value in experiment [2] (B 150 g a.i./ha) is reported as 46.6%; in experiment [2] (B 300 g a.i./ha), 57.3%.
For the compound `CN(C)C(=O)Nc1ccc(Cl)c(Cl)c1` [diuron], in experiment [1] (setting [3]), the pest or weed control at 75 g/ha came to 3%, the pest or weed control at 150 g/ha amounted to 16.5%, the pest or weed control at 300 g/ha was found to be 28.6% and the pest or weed control at 600 g/ha was determined as 52.2%. Further, in experiment [2] (setting [4]), the pest or weed control at 75 g/ha was found to be 4.1%, the pest or weed control at 150 g/ha was determined as 14%, the pest or weed control at 300 g/ha amounted to 31.3% and the pest or weed control at 600 g/ha amounted to 56.2%.

The values are drawn from patent US20220264878A1, “HERBICIDAL COMPOSITION CONTAINING R-TYPE PYRIDYLOXY CARBOXYLIC ACID DERIVATIVE AND USE THEREOF” (Qingdao Kingagroot Chemical Compound Co., Ltd., priority 2019, published 2022).
